Biological target: T1, human APJ receptor (Homo sapiens, UniProt P35414)
T1 construct: expressed in transfected cells
T1 sequence (P35414 1-380): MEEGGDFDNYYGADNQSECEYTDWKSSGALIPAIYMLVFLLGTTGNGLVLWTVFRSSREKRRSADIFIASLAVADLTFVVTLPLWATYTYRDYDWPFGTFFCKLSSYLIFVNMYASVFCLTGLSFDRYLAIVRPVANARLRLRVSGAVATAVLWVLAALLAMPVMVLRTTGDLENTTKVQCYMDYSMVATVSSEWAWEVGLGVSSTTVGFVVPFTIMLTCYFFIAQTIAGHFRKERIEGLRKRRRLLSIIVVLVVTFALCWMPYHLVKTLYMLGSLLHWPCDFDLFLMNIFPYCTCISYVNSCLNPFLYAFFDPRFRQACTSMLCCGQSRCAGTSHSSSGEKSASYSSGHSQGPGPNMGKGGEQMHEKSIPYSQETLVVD
Assay: Intracellular cAMP accumulation assay (APJ hcAMP, HTRF)
Format: cell-based
Settings: Table 2; HEK293 cells stably expressing human APJ receptor; read-out: hAPJ cAMP EC50 Potency range
Method in brief: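 Inhibition of forskolin (2 μM)-driven cAMP, with […], measured by HTRF after 30 min room-temperature compound exposure of stably transfected HEK293 cells. cAMP read from a standard curve; variable-slope fit gives EC50, and maximal inhibition is normalised to (Pyr1)apelin-13 as 100%.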

EC50 | SMILES
0.01 to 10 nM | CCCCc1nc(O)c(-c2nnc(Cc3ccc(Cl)cn3)o2)c(=O)n1[C@H]1CCCc2ccccc21 [Example 100, 2-butyl-5-{5-[(5-chloropyridin-2-yl)methyl]-1,3,4-oxadiazol-2-yl}-6-hydroxy-3-[(1S)-1,2,3,4-tetrahydronaphthalen-1-yl]-3,4-dihydropyrimidin-4-one]
100 to 300 nM | CCCCc1nc(O)c(-c2nnc(Cc3noc4ccccc34)o2)c(=O)n1[C@@H](C)c1ccc(OC)cc1 [Example 102, 5-{5-[(1,2-benzoxazol-3-yl)methyl]-1,3,4-oxadiazol-2-yl}-2-butyl-6-hydroxy-3-[(1S)-1-(4-methoxyphenyl)ethyl]-3,4-dihydropyrimidin-4-one]
10 to 100 nM | CCCCc1nc(O)c(-c2nnc(Cc3noc4ccccc34)o2)c(=O)n1[C@@H](C)c1cccc(C#N)c1 [Example 103, 3-[(1S)-1-(5-{5-[(1,2-benzoxazol-3-yl)methyl]-1,3,4-oxadiazol-2-yl}-2-butyl-4-hydroxy-6-oxo-1,6-dihydropyrimidin-1-yl)ethyl]benzonitrile]
10 to 100 nM | CCCCc1nc(O)c(-c2nnc(Cc3csc(C)n3)o2)c(=O)n1[C@@H](C)c1cccc(C#N)c1 [Example 104, 3-[(1S)-1-(2-butyl-4-hydroxy-5-{5-[(2-methyl-1,3-thiazol-4-yl)methyl]-1,3,4-oxadiazol-2-yl}-6-oxo-1,6-dihydropyrimidin-1-yl)ethyl]benzonitrile]
0.01 to 10 nM | CCCCc1nc(O)c(-c2nnc(Cc3ccc(Cl)cn3)o2)c(=O)n1[C@@H](CCC)c1ccccc1 [Example 105, 2-butyl-5-{5-[(5-chloropyridin-2-yl)methyl]-1,3,4-oxadiazol-2-yl}-6-hydroxy-3-[(1S)-1-phenylbutyl]-3,4-dihydropyrimidin-4-one]
10 to 100 nM | CCCCc1nc(O)c(-c2nnc(Cc3noc4ccccc34)o2)c(=O)n1[C@@H](CCC)c1ccccc1 [Example 107, 5-{5-[(1,2-benzoxazol-3-yl)methyl]-1,3,4-oxadiazol-2-yl}-2-butyl-6-hydroxy-3-[(1S)-1-phenylbutyl]-3,4-dihydropyrimidin-4-one]
0.01 to 10 nM | CCCCc1nc(O)c(-c2nnc(Cc3ccc(Cl)cn3)o2)c(=O)n1C(C)c1ccncc1 (stereo not drawn) [Example 109, 2-butyl-5-{5-[(5-chloropyridin-2-yl)methyl]-1,3,4-oxadiazol-2-yl}-6-hydroxy-3-[1-(pyridin-4-yl)ethyl]-3,4-dihydropyrimidin-4-one]
10 to 100 nM | CCCCc1nc(O)c(-c2nnc(Cc3csc(C)n3)o2)c(=O)n1C(c1ccccc1)C(C)C (stereo not drawn) [Example 112, 2-butyl-6-hydroxy-5-{5-[(2-methyl-1,3-thiazol-4-yl)methyl]-1,3,4-oxadiazol-2-yl}-3-(2-methyl-1-phenylpropyl)-3,4-dihydropyrimidin-4-one]
10 to 100 nM | CCCCc1nc(O)c(-c2nnc(Cc3noc4ccccc34)o2)c(=O)n1C(c1ccccc1)C(C)C (stereo not drawn) [Example 115, 5-{5-[(1,2-benzoxazol-3-yl)methyl]-1,3,4-oxadiazol-2-yl}-2-butyl-6-hydroxy-3-(2-methyl-1-phenylpropyl)-3,4-dihydropyrimidin-4-one]
0.01 to 10 nM | CCCCc1nc(O)c(-c2nnc(Cc3ccc(Cl)cn3)o2)c(=O)n1[C@@H](C)c1cccc(OC)c1 [Example 116, 2-butyl-5-{5-[(5-chloropyridin-2-yl)methyl]-1,3,4-oxadiazol-2-yl}-6-hydroxy-3-[(1S)-1-(3-methoxyphenyl)ethyl]-3,4-dihydropyrimidin-4-one]
0.01 to 10 nM | CCCCc1nc(O)c(-c2nnc(Cc3ccc(Cl)cn3)o2)c(=O)n1[C@@H](C)c1ccccc1 [Example 119, 2-butyl-5-{5-[(5-chloropyridin-2-yl)methyl]-1,3,4-oxadiazol-2-yl}-6-hydroxy-3-[(1S)-1-phenylethyl]-3,4-dihydropyrimidin-4-one]
0.01 to 10 nM | CCCCc1nc(O)c(-c2nnc(Cc3ccc(Cl)cn3)o2)c(=O)n1[C@H](C)c1ccccc1 [Example 120, 2-butyl-5-{5-[(5-chloropyridin-2-yl)methyl]-1,3,4-oxadiazol-2-yl}-6-hydroxy-3-[(1R)-1-phenylethyl]-3,4-dihydropyrimidin-4-one]

Second part, the molecule before the results:

SMILES | EC50
CCCCc1nc(O)c(-c2nnc(Cc3ccc(Cl)cn3)o2)c(=O)n1[C@@H](COC)c1ccccc1 [Example 101, 2-butyl-5-{5-[(5-chloropyridin-2-yl)methyl]-1,3,4-oxadiazol-2-yl}-6-hydroxy-3-[(1R)-2-methoxy-1-phenylethyl]-3,4-dihydropyrimidin-4-one] | 0.01 to 10 nM
CCCCc1nc(O)c(-c2nnc(Cc3csc(C)n3)o2)c(=O)n1[C@@H](CCC)c1ccccc1 [Example 106, 2-butyl-6-hydroxy-5-{5-[(2-methyl-1,3-thiazol-4-yl)methyl]-1,3,4-oxadiazol-2-yl}-3-[(1S)-1-phenylbutyl]-3,4-dihydropyrimidin-4-one] | 10 to 100 nM
CCCCc1nc(O)c(-c2nnc(Cc3ccc(Cl)cn3)o2)c(=O)n1[C@@H](C)c1cccc(C#N)c1 [Example 108, 3-[(1S)-1-(2-butyl-5-{5-[(5-chloropyridin-2-yl)methyl]-1,3,4-oxadiazol-2-yl}-4-hydroxy-6-oxo-1,6-dihydropyrimidin-1-yl)ethyl]benzonitrile] | 0.01 to 10 nM
CCCCc1nc(O)c(-c2nnc(Cc3noc4ccccc34)o2)c(=O)n1C(C)c1ccncc1 (stereo not drawn) [Example 110, 5-{5-[(1,2-benzoxazol-3-yl)methyl]-1,3,4-oxadiazol-2-yl}-2-butyl-6-hydroxy-3-[1-(pyridin-4-yl)ethyl]-3,4-dihydropyrimidin-4-one] | 10 to 100 nM
CCCCc1nc(O)c(-c2nnc(Cc3ccc(Cl)cn3)o2)c(=O)n1C(C)c1ccncc1 (stereo not drawn) [Example 111, 2-butyl-5-{5-[(5-chloropyridin-2-yl)methyl]-1,3,4-oxadiazol-2-yl}-6-hydroxy-3-[1-(pyridin-4-yl)ethyl]-3,4-dihydropyrimidin-4-one] | 0.01 to 10 nM
CCCCc1nc(O)c(-c2nnc(Cc3ccc(Cl)cn3)o2)c(=O)n1C(c1ccccc1)C(C)C (stereo not drawn) [Example 113, 2-butyl-5-{5-[(5-chloropyridin-2-yl)methyl]-1,3,4-oxadiazol-2-yl}-6-hydroxy-3-(2-methyl-1-phenylpropyl)-3,4-dihydropyrimidin-4-one] | 0.01 to 10 nM
CCCCc1nc(O)c(-c2nnc(Cc3noc4ccccc34)o2)c(=O)n1[C@@H](C)c1cccc(OC)c1 [Example 114, 5-{5-[(1,2-benzoxazol-3-yl)methyl]-1,3,4-oxadiazol-2-yl}-2-butyl-6-hydroxy-3-[(1S)-1-(3-methoxyphenyl)ethyl]-3,4-dihydropyrimidin-4-one] | 10 to 100 nM
CCCCc1nc(O)c(-c2nnc(Cc3noc4ccccc34)o2)c(=O)n1[C@@H]1CCc2ccccc21 [Example 117, 5-{5-[(1,2-benzoxazol-3-yl)methyl]-1,3,4-oxadiazol-2-yl}-2-butyl-3-[(1R)-2,3-dihydro-1H-inden-1-yl]-6-hydroxy-3,4-dihydropyrimidin-4-one] | 100 to 300 nM
CCCCc1nc(O)c(-c2nnc(Cc3ccc(Cl)cn3)o2)c(=O)n1[C@@H](CC)c1ccccc1 [Example 118, 2-butyl-5-{5-[(5-chloropyridin-2-yl)methyl]-1,3,4-oxadiazol-2-yl}-6-hydroxy-3-[(1S)-1-phenylpropyl]-3,4-dihydropyrimidin-4-one] | 0.01 to 10 nM
CCCCc1nc(O)c(-c2nnc(Cc3noc4ccccc34)o2)c(=O)n1C(C)c1cccnc1 (stereo not drawn) [Example 121, 5-{5-[(1,2-benzoxazol-3-yl)methyl]-1,3,4-oxadiazol-2-yl}-2-butyl-6-hydroxy-3-[1-(pyridin-3-yl)ethyl]-3,4-dihydropyrimidin-4-one] | 100 to 300 nM
CCCCc1nc(O)c(-c2nnc(Cc3ccc(Cl)cn3)o2)c(=O)n1[C@@H]1CCc2ccccc21 [Example 122] | 10 to 100 nM
CCCCc1nc(O)c(-c2nnc(Cc3ccc(Cl)cn3)o2)c(=O)n1C(C)c1cccnc1 (stereo not drawn) [Example 123, 2-butyl-5-{5-[(5-chloropyridin-2-yl)methyl]-1,3,4-oxadiazol-2-yl}-6-hydroxy-3-[1-(pyridin-3-yl)ethyl]-3,4-dihydropyrimidin-4-one] | 10 to 100 nM
